{"source": "patent US6767705B2", "about": "“Reagents and methods for identifying and modulating expression of genes regulated by retinoids” (The Board of Trustees of the University of Illinois, priority 2000, dated 2004)", "key": {"[1]": {"tested_on": "MCF-7 cells", "test": "Clonogenic assay (colony formation / plating efficiency) of MCF-7 cells after RA treatment", "type": "cell-based, human", "procedure": "FIGS. 1A and 1B are graphs showing the effects of retinoic acid (RA) on colony formation by MCF-7 cells. In each assay, 1.5×10^5 cells were plated per P100, in the absence or in the presence of RA. For clonogenic assays, cells were trypsinized after treatment, and 2,500 cells were plated per P100 and grown in drug-free media. […] Each point represents the mean and standard deviation for triplicate assays.\nClonogenic assays were performed to analyze the differences in proliferative capacity in MCF-7 cells after treatment with 100 nM RA for varying times. Cells were exposed to 100 nM RA for 1-7 days and tested for their capacity to form colonies after treatment at each time point. […] The decrease was initially rapid (from 100% to 40% plating efficiency after 2 days incubation with RA) and decreased more slowly to a final plating efficiency of about 10% at day 7."}, "[2]": {"tested_on": "MCF-7 cells", "test": "cDNA microarray hybridization (Human UniGEM V) of RA-treated vs untreated MCF-7 cells", "type": "cell-based", "conditions": "100 nM RA, 5 days", "procedure": "To study gene expression changes, poly(A)+ RNA was isolated from untreated MCF-7 cells and from cells treated for 5 days with 100 nM RA. cDNA was prepared from these RNA populations and the cDNA hybridized with a cDNA microarray (Human UniGEM V cDNA microarray, Incyte Genomics, St. Louis, Mo.) that contains >7,000 cDNAs of different human genes and ESTs. cDNA probe synthesis, hybridization with the microarray and signal analyses were conducted by IncyteGenomics as a commercial service."}, "[3]": {"tested_on": "MCF-7 cells", "test": "RT-PCR analysis of expression of retinoid-inducible genes in MCF-7 cells", "type": "cell-based, human", "procedure": "FIGS. 2A through 2C show the results of RT-PCR analysis of changes in the expression of retinoid-inducible genes as described in Example 1. The identity of each gene is followed by the NCBI Accession Number (in parentheses). […] The designations “R5” and “R8” correspond to days 5 and 8 after release from 5-day RA treatment, respectively.\nRT-PCR analysis was carried out essentially as described (Noonan et al., 1990, Proc. Natl. Acad. Sci. USA 87: 7160-7164), using β-actin as an internal normalization standard."}, "[4]": {"tested_on": "MCF-7 cells", "test": "Immunocytochemical and immunoblotting analysis of IGFBP-3, HIF2α/EPAS-1 and EPLIN proteins in MCF-7 cells", "type": "cell-based, human", "conditions": "100 nM RA for 5 days, MCF-7 cells (FIG. 3A, 3B)", "procedure": "FIG. 3A is a photomicrograph and FIG. 3B is a photograph of an immunoblot showing induction of IGFBP-3, HIF2α/EPAS-1 and EPLIN proteins in RA-treated cells.\nInduction of three genes in this group was tested and confirmed at the protein level, by immunocytochemical assays, shown in FIG. 3A, using rabbit polyclonal antibody against EPLIN (a gift of Dr. David Chang, UCLA), and goat polyclonal antibodies against IGFBP-3 and EPAS-1/HIF-2α (Santa Cruz Biotechnology, Inc., Santa Cruz, Calif.) and standard techniques. Antibody staining was detected using Vectastain kit (Vector Labs, Burlingame, Calif.) according to the manufacturer's instructions.\nThe EPLIN gene encodes two protein isoforms. EPLINα and EPLINβ, with the larger (β) isoform showing a stronger growth-inhibitory effect. The observed induction of EPLIN gene expression was confirmed by immunocytochemical and immunoblotting assays (results shown in FIGS. 3A and 3B). These assays were performed using rabbit polyclonal antibody against EPLIN (a gift of Dr. David Chang, UCLA) and were carried out by standard techniques. Antibody staining was detected using Vectastain kit (Vector Labs) for immunocytochemistry and horseradish peroxidase-conjugated goat anti-rabbit IgG (Santa Cruz) for immunobloting."}, "[5]": {"tested_on": "MCF-7 human breast carcinoma cells", "conditions": "cited from earlier work"}, "[6]": {"tested_on": "p21", "conditions": "retinoic acid-induced growth inhibition in MCF-7 cells; cited from earlier work"}, "[7]": {"tested_on": "xenografts of MCF-10T neo mammary epithelial cells", "conditions": "xenografts in vivo after treatment with fenretinide; cited from earlier work"}, "[8]": {"conditions": "100 nM RA, MCF-7 cells (FIG. 2A)"}}}
{"smiles": "CC1=C(/C=C/C(C)=C/C=C/C(C)=C/C(=O)O)C(C)(C)CCC1", "note": "[RA, all-trans retinoic acid]", "values": [{"measurement": "plating efficiency, normalized to untreated control", "setting": "[1]; 100 nM RA, after 2 days incubation, MCF-7 cells (FIG. 1A)", "value": 40, "unit": "%"}, {"measurement": "final plating efficiency, normalized to untreated control", "setting": "[1]; 100 nM RA, day 7, MCF-7 cells (FIG. 1A)", "value": "about 10%"}, {"measurement": "plating efficiency at varying concentrations of RA", "setting": "[1]; 40 hr treatment, indicated doses, lowest 10 nM, MCF-7 cells (FIG. 1B)", "value": "dose-dependent reduction in plating efficiency at all tested doses (as low as 10 nM)"}, {"measurement": "decrease in balanced differential expression, 20 genes", "setting": "[2]", "value": "1.7-3.0 fold"}, {"measurement": "increase in balanced differential expression, 27 genes", "setting": "[2]", "value": "1.4-2.5 fold"}, {"measurement": "maximum decrease in relative hybridization intensity of any gene in the microarray", "setting": "[2]", "value": "≤ 3", "unit": "fold"}, {"measurement": "maximum increase in relative hybridization intensity of any gene in the microarray", "setting": "[2]", "value": "≤ 2.5", "unit": "fold"}, {"measurement": "time course of changes in RNA levels of the 13 genes", "setting": "[3]; [8]", "value": "many of them increased their expression between days 1 and 4 of RA treatment"}, {"measurement": "time to maximum expression of RNF", "setting": "[3]; [8]", "value": "maximum expression after just one day of treatment"}, {"measurement": "RA dose-dependence of gene expression of the 13 genes", "setting": "[3]; 40 hr treatment, lowest dose 10 nM, MCF-7 cells (FIG. 2B)", "value": "almost all of these genes were induced even by the lowest (10 nM) dose"}, {"measurement": "induction of 13 upregulated genes by RT-PCR", "setting": "[3]; RA-treated MCF-7 cells, printed as '5-10 fold or more' (FIGS. 2A, 2B)", "value": "5-10 fold"}, {"measurement": "expression of IGFBP-3, EPAS-1/HIF2α and EPLIN proteins", "setting": "[4]", "value": "increased expression of the corresponding proteins"}, {"measurement": "continuous exposure required for the growth arrest effect to become apparent", "setting": "[5]; low dose RA (between 10-100 nM), MCF-7 cells", "value": "4 to 6", "unit": "days"}, {"measurement": "growth arrest and cell death in MCF-7 cells", "setting": "[5]; relatively low doses of RA (between 10-100 nM)", "value": "induce irreversible growth arrest in MCF-7 cells, while producing only a minor reduction in cell numbers caused by cell death"}, {"measurement": "induction of p21", "setting": "[6]", "value": "does not induce p21"}]}
{"smiles": "CC1=C(/C=C/C(C)=C/C=C/C(C)=C/C(=O)Nc2ccc(O)cc2)C(C)(C)CCC1", "note": "[fenretinide, 4-hydroxyphenylretinamide]", "values": [{"measurement": "induction of the 13 genes", "setting": "[3]; 1 μM fenretinide, MCF-7 cells (FIG. 2C)", "value": "All 13 genes were also induced"}, {"measurement": "induction of senescence-associated marker SA-β-gal", "setting": "[7]", "value": "Induction of SA-β-gal was also observed"}]}
